Reference: publication PMC10675132, “Novel Coumarin Derivatives as Potential Urease Inhibitors for Kidney Stone Prevention and Antiulcer Therapy: From Synthesis to In Vivo Evaluation” (Pharmaceuticals, 2023)
Read-outs that look alike come from different tables or passages of the source.

Biological target: jack bean urease (Canavalia ensiformis, UniProt P07374)
Assay: indophenol urease inhibition assay ([…] nm)
Assay type: biochemical

Chain of jack bean urease (P07374 whole entry, looked up): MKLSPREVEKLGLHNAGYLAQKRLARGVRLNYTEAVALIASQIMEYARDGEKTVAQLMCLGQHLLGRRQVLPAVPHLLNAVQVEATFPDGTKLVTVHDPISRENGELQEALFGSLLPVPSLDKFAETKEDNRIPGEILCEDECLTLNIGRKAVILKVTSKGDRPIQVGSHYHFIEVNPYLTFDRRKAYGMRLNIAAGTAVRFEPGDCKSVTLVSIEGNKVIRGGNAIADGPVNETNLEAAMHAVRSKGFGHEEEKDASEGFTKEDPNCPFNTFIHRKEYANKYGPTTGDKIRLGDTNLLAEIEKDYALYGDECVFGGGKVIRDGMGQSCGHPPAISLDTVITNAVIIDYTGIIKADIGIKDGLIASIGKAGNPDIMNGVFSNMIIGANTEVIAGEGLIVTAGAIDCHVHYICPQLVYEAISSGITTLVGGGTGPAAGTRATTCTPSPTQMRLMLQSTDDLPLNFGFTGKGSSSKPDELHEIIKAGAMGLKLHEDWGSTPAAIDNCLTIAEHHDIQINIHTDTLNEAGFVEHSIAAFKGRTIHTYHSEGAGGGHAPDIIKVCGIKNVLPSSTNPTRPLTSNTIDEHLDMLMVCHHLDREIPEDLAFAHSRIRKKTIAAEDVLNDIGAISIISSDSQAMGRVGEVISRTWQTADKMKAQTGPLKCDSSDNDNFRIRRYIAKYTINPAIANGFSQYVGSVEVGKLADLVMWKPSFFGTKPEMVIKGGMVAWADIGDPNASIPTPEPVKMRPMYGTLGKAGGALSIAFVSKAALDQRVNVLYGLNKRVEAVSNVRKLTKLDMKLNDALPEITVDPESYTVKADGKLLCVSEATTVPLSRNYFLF

## O=c1cc(/N=C/c2cccc([N+](=O)[O-])c2)c2ccccc2o1 [3a, (E)-4-(3-nitrobenzylideneamino)-2H-chromen-2-one]
  IC50: 0.412 µM

## NC(N)=S [Thiourea, reference compound]
read-out: IC50 ± SEM
  IC50: 0.14 µM

## O=c1cc(/N=C/c2ccc([N+](=O)[O-])cc2)c2ccccc2o1 [5a, (E)-4-(4-nitrobenzylideneamino)-2H-chromen-2-one]
  IC50: 0.322 µM

## Cc1ccc(O)c(/C=N/c2cc(=O)oc3ccccc23)c1 [7a, (E)-4-(2-hydroxy-5-methylbenzylideneamino)-2H-chromen-2-one]
  IC50: 0.112 µM
